This is an account of results in ChEMBL document CHEMBL3507680, “University of Dundee, Gates Library screen for HepG2 cell viability”.

This data set is described as follows: Human HepG2 cell viability assay in 384 well format. The class given is toxicity, cell-based. The following applies: HepG2 cells, read-out: Inhibition. Also on record: dose 125 nL, time 70.5 hour; concentration not given beside the values.

`CN(CCc1ccccc1)Cc1nc(-c2cnccn2)no1`: the cytotoxicity at 70.5 h was -8.36%. Turning to `COc1cccc(OCCNCc2ccccc2)c1`, the cytotoxicity at 70.5 h is -7.2%. The same measure for `O=C(c1cccnc1-c1ccoc1)N1C[C@H]2CC[C@@H]1C2`: -10.4%. As for `CN1C[C@@H](n2cnc(-c3ccccc3)c2-c2ccccn2)C[C@H]1C(=O)O`, the figure is -10%; as for `CN(Cc1n[nH]c2c1CCCC2)c1nc2c(c(=O)[nH]1)CCNCC2`, -4.95%; as for `COc1cccc(C(C(=O)O)N2CCCN(c3ccnc(C)c3)CC2)c1` (configuration not stated), -7.15%.

In the case of `COc1ccc2nc(CNC(=O)C3CC4(CCNCC4)CN3C)[nH]c2c1` (configuration not stated), the cytotoxicity at 70.5 h is -20.5%. The same measure for `COc1cc(C)cc(OC)c1C(C(=O)O)N(C)Cc1c(C)nn(C)c1C` (configuration not stated): -14.7%; for `COC(=O)c1cc(OCC2CCC2)cc(C(=O)NCC(C)(C)O)c1`: -4.36%; for `Cc1ccc2c(c1)SCC(=O)N2Cc1noc(C2CCCO2)n1` (configuration not stated): -11.5%.

As to `CCn1c(C)nnc1SCCn1cc(-c2nccs2)nn1`, the cytotoxicity at 70.5 h was -7.44%.

For the compound `Cc1ccc(N2CCCN(CC3CC3)C(C(C)C)C2)nn1` (configuration not stated), the cytotoxicity at 70.5 h is -14.3%. For `CC(C)(C)c1cn(C2CCN(C3CCSC3)CC2)nn1` (configuration not stated), the cytotoxicity at 70.5 h was -7.05%. The same measure for `O=C(CCN1CCCCO1)NC1CCCN(CC2CCCCC2)C1` (configuration not stated): -8.52%; for `CS(=O)(=O)NCC1(O)CCCN(C(=O)CCn2cc(Cl)cn2)CC1` (configuration not stated): -1.38%. On to `Cc1nn(C)c(C)c1CN(Cc1cccn1-c1ncccn1)C(C)C`, for which the cytotoxicity at 70.5 h was 3.54%. Consider `Cc1cc(C(=O)NCCC2CN(C)CCO2)c2cccc(C)c2n1` (configuration not stated), for which the cytotoxicity at 70.5 h was -11.4%. As for `CCC(Nc1cccc(OC)c1)C(=O)NCc1ccc2c(c1)OCO2` (configuration not stated), the figure is -8.45%; as for `CCc1oc(C(=O)NC(C)Cc2cnccn2)cc1CN1CCCC1` (configuration not stated), -14.2%; as for `C[C@@H]1CN(C2(C(=O)N(C)C)Cc3ccccc3C2)C[C@H](C)O1`, 13.4%. For the compound `Cc1cc(C)n(C2CN(C(=O)c3cn4ccsc4n3)C2)n1`, the cytotoxicity at 70.5 h was determined as 2.53%. For the compound `CC(=O)N1C[C@@H]2CC[C@H](C1)N(S(=O)(=O)c1ccccc1Cl)C2`, the cytotoxicity at 70.5 h was -14.4%.

On to `Cc1ccc(CNC(=O)c2cc(Cn3ccnc3C(C)C)[nH]n2)o1`, for which the cytotoxicity at 70.5 h worked out at 20.2%.

For `CCN(Cc1noc(C2CCC2)n1)C(=O)c1cn2ccsc2n1`, the cytotoxicity at 70.5 h stood at 14.6%. As for `CC(Nc1ncnc2c1CCNCC2)c1nc2c(s1)CCCC2` (configuration not stated), the figure is -5.82%; as for `O=C(Nc1ccc(F)c(Cl)c1)N1CCCN([C@H]2COC[C@@H]2O)CC1`, -14.1%; as for `Cc1cccnc1CCNC(=O)[C@@]12CNC[C@@H]1CN(S(C)(=O)=O)C2`, -1.74%. The same measure for `CCC1CCN(CCn2cnc3c(C)csc3c2=O)CC1`: -6.08%; for `Cc1cccc2c1nc(COCC(=O)O)n2-c1cnc(N)cn1`: -4.53%; for `CCC(CC)CN1CCC(n2cc(C3CCCC3)nn2)CC1`: -3.87%. As for `FC(F)(F)CCc1ccnc(NCc2csc(N3CCOCC3)n2)n1`, the figure is -10.4%. Turning to `COc1ccc(CC2CN(C(=O)c3ocnc3C)CCO2)cc1` (configuration not stated), the cytotoxicity at 70.5 h amounted to 14.4%.

In the case of `CN(CCn1ccnc1-c1ccccn1)S(C)(=O)=O`, the cytotoxicity at 70.5 h was determined as 11.9%. Take `c1ccc(Oc2nccc3occc23)c(CN2CCCCC2)c1`: the cytotoxicity at 70.5 h turned out to be 6.4%.

As to `Cc1ccc2nc(C(=O)N3CCNC(=O)C3c3cccc(F)c3)cn2c1` (configuration not stated), the cytotoxicity at 70.5 h worked out at 24.1%.

Consider `O=c1[nH]c(-c2ccc(F)cc2)nc2c1CCNC2`, for which the cytotoxicity at 70.5 h is -0.466%. On to `CCNC(=O)[C@@H]1C[C@H](N)CN1Cc1ccc(-c2ccccc2C#N)o1`, for which the cytotoxicity at 70.5 h was determined as 9.56%. The same measure for `COCCCC1CCCCN1S(=O)(=O)c1cccc(C#N)c1` (configuration not stated): 4.41%. The same measure for `COCC1(NC(=O)C(c2ccc(F)cc2)N(C)C)CCCC1` (configuration not stated): 7.27%; for `CCc1cc(-c2ccnc3c2ccn3C)nc(N2CCOCC2)n1`: 1.11%; for `CCN(CC)S(=O)(=O)N1C[C@@H]2CC[C@H](C1)N(Cc1cscn1)C2=O`: -9.09%. As to `O=C1N(CCO)CCCC12CCN(Cc1nnc(C3CC3)o1)C2` (configuration not stated), the cytotoxicity at 70.5 h amounted to 0.803%. On to `CNCCNc1ccc(-c2nc(-c3cccc(OC)c3OC)no2)cn1`, for which the cytotoxicity at 70.5 h is -2.42%. As for `O=C(c1ccc(F)c(F)c1)N1CCC(Cn2cc(CO)nn2)CC1`, the figure is -3.06%. For `NC(=O)CCn1cc(CNCCCc2csc(N)n2)c2ccccc21`, the cytotoxicity at 70.5 h was -6.3%. As for `Cc1nc(-c2c(-c3ccccc3)ncn2[C@H]2C[C@@H](C(=O)O)N(C)C2)co1`, the cytotoxicity at 70.5 h was -11.1%. The same measure for `COCCN1C(=O)[C@H]2CC[C@@H]1CN(C(=O)Cc1c(F)cccc1Cl)C2`: -8.61%; for `CC(C)c1nccn1C(C)C(=O)N1CCN(c2cnccn2)CC1` (configuration not stated): -11.1%. Turning to `CCc1nnc(CN(C)c2nccc(CCC(F)(F)F)n2)o1`, the cytotoxicity at 70.5 h was -9.32%. In the case of `COc1ccc(CNC2CCCc3nc(N(C)C)ncc32)c(OC)c1` (configuration not stated), the cytotoxicity at 70.5 h was -8.28%. The same measure for `Cc1cccnc1CN(C)C(C(=O)O)c1ccc(-c2ccn[nH]2)cc1` (configuration not stated): -3.62%; for `COc1cnc(CN2CCN(CC(C)C)C(=O)C2C)cc1O` (configuration not stated): 0.0157%. As for `COCC(=O)N(Cc1cccc(C)c1)Cc1ccccc1OC`, the figure is -4.3%; as for `Cc1cc(C2CCC2)nc(NCC(C)(C)N2CCOCC2)n1`, 15.4%. As for `COc1coc(CN2CCCC3(CCC(=O)N(C4CC4)C3)C2)cc1=O` (configuration not stated), the figure is -12.4%; as for `Cc1[nH]c2ccc(CNc3cc(C#N)ccn3)cc2c1C`, -4.75%. Turning to `CC(C)Cn1cncc1CNC(=O)c1cccc(Cn2cccn2)c1`, the cytotoxicity at 70.5 h is -5.12%. The same measure for `Cc1nn(CCN2CCSCC2)cc1CNCC1CC1`: -14.6%; for `CO[C@H]1CN(Cc2cc(Cn3cncn3)c(C)cc2C)CC[C@H]1N`: 6.57%; for `O=C1CC2(CCCC2)CN1CCOc1ccc(F)cc1`: -9.74%. For `Cc1ncc(C)c(N2Cc3cnn(Cc4ccc(F)cc4)c3C2)n1`, the cytotoxicity at 70.5 h stood at 13%. As for `Cn1ncc(N2CCC(CNC(=O)[C@@H](N)c3ccccc3)CC2)cc1=O`, the figure is -4.64%; as for `C=C(C)COc1cccc(CN(CC)Cc2noc(C)n2)c1`, -0.0989%. On to `N[C@@H]1CCN(Cc2cccc(N3CCOCC3)c2)C[C@H]1O`, for which the cytotoxicity at 70.5 h worked out at 26.8%.

Take `CCCn1cc(C(=O)NC2CCN(CC(=O)NC3CC3)CC2)c(C)n1`: the cytotoxicity at 70.5 h is 0.264%. As to `CCNc1ncc(C2CC(=O)Nc3c2cnn3Cc2ccncc2)cn1` (configuration not stated), the cytotoxicity at 70.5 h worked out at 5.87%. As for `Cc1nc(CNCc2cccc(OC34CCCN(CC3)C4)c2)n[nH]1` (configuration not stated), the figure is -3.22%; as for `Cc1nc2c(c(NCCc3nc(C)c(Cl)s3)n1)CCNCC2`, -11%. As for `O=C1N(Cc2ccc(F)c(F)c2)CCCC12CCN(C1CCCC1)C2` (configuration not stated), the figure is -2.62%. The same measure for `CCc1ccc(CNC[C@H]2C[C@@H](CO)N(C)[C@H]2c2ccccc2F)o1`: -2.04%. Consider `Cc1c(C)c(C)c2[nH]c(-c3cn(C4CCNCC4)nn3)nc2c1C`, for which the cytotoxicity at 70.5 h is -5.74%. As for `CCc1cc(NCCNc2ccncc2C)n2nc(C)c(C)c2n1`, the figure is -1.4%; as for `Cc1cc(C)n2ncc(CN3CCC(Cn4cc(CO)nn4)CC3)c2n1`, 0.595%; as for `CNC(=O)Cc1ccc(-n2ccnc2-c2cccc(C(=O)O)c2)cc1`, 17.5%. As for `CN1CCC(N(CCc2ccccc2)Cc2noc(C3CC3)n2)CC1`, the figure is -12.8%; as for `Nc1cnc(-c2ccc(F)cc2Cl)cn1`, 10.8%; as for `CN1CCC(N(C)CCC(=O)N2CCN(Cc3cccc(F)c3)CC2)C1` (configuration not stated), -0.236%. `C=C(C)COc1ccccc1CN1CCC(C(=O)NCC)C1` (configuration not stated): the cytotoxicity at 70.5 h is -7.01%. Regarding `NCC1CCN(c2cnn(CCCn3cccn3)c(=O)c2)CC1`, the cytotoxicity at 70.5 h was -8.18%. As for `CNC(=O)[C@@H]1C[C@H](N)CN1Cc1cc2cc(OC)ccc2nc1O`, the figure is -8.56%.

As to `Cn1c(CCNC(=O)CC[C@@H]2CCCN3CCCC[C@H]23)n[nH]c1=O`, the cytotoxicity at 70.5 h is -14.7%.

`Cc1cccc(CN2CCCC(O)(CNCc3cccc(F)c3)C2=O)c1` (configuration not stated): the cytotoxicity at 70.5 h is -5.44%. Regarding `CS(=O)(=O)c1ccc(-c2cc(O)cc(CCC3CCCCN3)c2)cc1` (configuration not stated), the cytotoxicity at 70.5 h is -7.28%. For the compound `CS(=O)(=O)N[C@H]1CN(C(=O)CCc2ccco2)C[C@@H]1C1CC1`, the cytotoxicity at 70.5 h was 19.3%.

For `CC1(c2ccccc2)CCCN(Cc2nnc(-c3cccnc3)o2)C1` (configuration not stated), the cytotoxicity at 70.5 h is -3.27%. With `Cc1cccc(C(C(=O)NCCCc2ccccn2)N(C)C)c1` (configuration not stated), the cytotoxicity at 70.5 h stood at 21.2%. The same measure for `O=C(CCCn1cncn1)N1CCC2(CCCN(C3CCCC3)C2=O)C1` (configuration not stated): -4.98%. As for `CSc1nccc(N2CCC(NCc3ccc4nsnc4c3)CC2)n1`, the figure is 23.1%; as for `CC(=O)Nc1ccc2nc(CN(C)Cc3snnc3C)ccc2c1`, -9.42%; as for `Cc1cccc(C(=O)N2CCN(S(C)(=O)=O)[C@@H]3CS(=O)(=O)C[C@@H]32)n1`, -7.33%. For `CCC(NC(=O)c1cnc(-c2cccnc2)nc1)c1ccnn1C` (configuration not stated), the cytotoxicity at 70.5 h was 32.1%. Turning to `CSc1ccccc1C(=O)N1CCOC(CCN(C)C)C1` (configuration not stated), the cytotoxicity at 70.5 h is -15.3%. On to `Nc1nc(N2CCCC(COc3ccc(F)cc3)C2)c2nc[nH]c2n1` (configuration not stated), for which the cytotoxicity at 70.5 h was -7.35%. As for `CC(C)C[C@H](NCc1cc(O)c2cccc(F)c2n1)C(N)=O`, the cytotoxicity at 70.5 h was -11.8%. Regarding `Cn1cccc1-c1cc(C(=O)N2CCCC2C(F)(F)F)[nH]n1` (configuration not stated), the cytotoxicity at 70.5 h is -5.87%. The same measure for `COCc1noc(Cn2c(C)cc(C(F)(F)F)cc2=O)n1`: -10.7%; for `CCNC(=O)c1ccnc(CC2COc3c(cccc3OC)C2)c1` (configuration not stated): -38.4%.
